US12570638B2, “Fused imidazole derivatives as AHR antagonists” (Sail Biomedicines, Inc., priority 2020, dated 2026)
Converted amounts (≈) assume the structure as drawn. Where two headings read alike, the source gives them in different places.

Key:
[1] = biological target: T1, AHR (Homo sapiens, UniProt P35869); experiment: DRE-Luciferase Reporter Assay (HepG2 AhR-Lucia reporter cells); type: cell-based; settings: luciferase activity with AHR activating ligand at EC50, read-out: HepG2-Luc IC50
T1 construct: other cell line with a DRE-luciferase reporter stably transfected; endogenous in cells; host or cells: Human HepG2 liver carcinoma AhR-Lucia reporter cells
T1 sequence (P35869 11-848): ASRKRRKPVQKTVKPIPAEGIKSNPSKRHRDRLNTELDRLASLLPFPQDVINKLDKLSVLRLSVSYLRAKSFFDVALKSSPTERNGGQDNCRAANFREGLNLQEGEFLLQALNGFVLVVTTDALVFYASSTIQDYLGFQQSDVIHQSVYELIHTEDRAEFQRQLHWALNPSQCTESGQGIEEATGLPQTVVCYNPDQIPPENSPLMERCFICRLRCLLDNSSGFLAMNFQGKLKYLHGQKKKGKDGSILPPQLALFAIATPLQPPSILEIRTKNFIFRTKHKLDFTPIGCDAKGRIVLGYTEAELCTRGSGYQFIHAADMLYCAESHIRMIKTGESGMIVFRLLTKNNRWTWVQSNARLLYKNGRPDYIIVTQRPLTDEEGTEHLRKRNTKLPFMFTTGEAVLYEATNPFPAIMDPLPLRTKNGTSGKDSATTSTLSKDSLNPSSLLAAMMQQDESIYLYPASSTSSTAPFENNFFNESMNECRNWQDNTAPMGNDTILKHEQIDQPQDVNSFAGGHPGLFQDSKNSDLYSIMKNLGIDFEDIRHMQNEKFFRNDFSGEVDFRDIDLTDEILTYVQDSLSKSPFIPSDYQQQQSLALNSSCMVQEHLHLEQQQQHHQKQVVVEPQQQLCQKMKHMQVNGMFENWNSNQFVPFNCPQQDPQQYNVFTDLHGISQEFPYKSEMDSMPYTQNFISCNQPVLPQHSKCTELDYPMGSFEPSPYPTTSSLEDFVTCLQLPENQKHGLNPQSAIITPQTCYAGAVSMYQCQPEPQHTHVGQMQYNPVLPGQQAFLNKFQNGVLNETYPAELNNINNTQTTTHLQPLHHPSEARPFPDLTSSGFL
Text: AHR binds to Dioxin Responsive Elements (DRE) upstream of genes that it activates. One measure of AHR activity is activation of a reporter gene, such as luciferase, downstream of one or multiple DRE elements. Luciferase activity will reflect activation and inhibition of AHR in the cells expressing his reporter. 20000 Human HepG2 liver carcinoma—AhR-Lucia reporter cells or Human HT29 colon adenocarcinoma—AhR reporter cells or other cell line with a DRE-luciferase reporter stably transfected were plated in Eagle's Minimal Essential Medium, 10% heat-inactivated FBS, 1× non-essential amino acids Pen-Strep (10,000 U/mL) and Normocin (100 ug/mL) in plates (96-well, 384-well or other plates) and incubated overnight at 37° C. in a CO2 incubator and treated with and without AhR antagonists at a log dilution starting at 100 uM.
After 1 hr that cells were plated an AHR activating ligand, such as TCDD, kynurenine, ITE (2-(1H-indole-3-ylcarbonyl)-4-thiazolecarboxylic methyl ester), VAF347, BNF (beta-naphthoflavone), FICZ (6-formylindolo(3,2-b) carbazole) or other AHR ligands at their specific EC50 concentration, were added to the cells with or without AHR antagonist.
Cells were incubated for 24 or 48 hours or another time point and then, supernatant was analyzed for determination of luciferase activity as a read-out of the AHR activation or inhibition. Luciferase was measured with the commercial kit QUANTI-Luc™ assay solution kit from Invivogen following the manufacturer's instructions.
The level of luciferase with only agonist ligand added was the maximum signal while the luciferase with […] was the minimum signal. IC50 values were determined as the concentration which inhibits half of the luciferase activity.

[2] = Liver Microsome Stability Assay, human; type: in vitro ADME; settings: human liver microsomes, with NADPH, 1 μM compound, read-out: Human liver microsome clearance
Method: The master solution was prepared according to Table 6.
Two separate experiments were performed as follows.
With Cofactors (NADPH): 25 μL of 10 mM NADPH was added to the incubations. The final concentrations of microsomes and NADPH were 0.5 mg/mL and 1 mM, respectively. The final concentration of microsomes was 0.5 mg/mL. The mixture was pre-warmed at 37° C. for 10 minutes. The reaction was started with the addition of 2.5 μL of 100 μM control compound or test compound solutions. Verapamil was used as positive control in this study. The final concentration of test compound or control compound was 1 μM. The incubation solution was incubated in water batch at 37° C. Aliquots of 25 μL were taken from the reaction solution at 0.5, 5, 15, 30 and 60 minutes. The reaction was stopped by the addition of 5 volumes of cold acetonitrile with IS (200 nM caffeine and 100 nM tolbutamide). Samples were centrifuged at 3, 220 g for 40 minutes. Aliquot of 100 μL of the supernatant was mixed with 100 μL of ultra-pure H2O and then used for LC-MS/MS analysis.
Data Analysis: All calculations were carried out using Microsoft Excel. Peak areas were determined from extracted ion chromatograms. The slope value, k, was determined by linear regression of the natural logarithm of the remaining percentage of the parent drug vs. incubation time curve.
The in vitro half-life (in vitro t1/2) was determined from the slope value: in vitro t1/2=−([…]/k)
Conversion of the in vitro t1/2 (min) into the in vitro intrinsic clearance (in vitro CLint, in μL/min/mg protein) was done using the following equation (mean of duplicate determinations):
The calculations of Scaled-up CLint (mL/min/kg), Predicted CLH (mL/min/kg) and EH were done using the following equation: Scaled-up CLint=(0.693/t1/2)×(1/(microsomal protein concentration(0.5 mg/mL)))×Scaling Factors; Predicted CLH=(QH×Scaled-up CLint×fub)/(QH+Scaled-up CLint×fub); EH=Predicted CLH/QH • where QH is the hepatic blood flow (mL/min/kg) (Table 7), • fub is the fraction of unbound drug in plasma which is assumed to be 1. […]

[3] = Solubility Determination Assay (PBS, LC-MS/MS); type: physicochemical; settings: aqueous buffer, kinetic from dmso stock
Method: The stock solutions of test compounds and control compound progesterone were prepared in DMSO at the concentrations of 10 mM. 15 μL of stock solution (10 mM) of each sample was placed in order into their proper 96-well rack. 485 μL of PBS pH 1.6 and pH 7.4 were added into each vial of the cap-less Solubility Sample plate. The assay was performed in singlet. One stir stick was added to each vial and then the vial was sealed using a molded PTFE/Silicone plug. […] After completion of the 2 hours, plugs were removed and the stir sticks were removed using a big magnet. The samples from the Solubility Sample plate were transferred into the filter plate. Using the Vacuum Manifold, all the samples were filtered. An aliquot of 5 μL was taken from the filtrate followed by addition of 495 μL of a mixture of H2O and acetonitrile containing internal standard (1:1). A certain proportion of ultrapure water was used to dilute the diluent according to the peak shape. The dilution factor was changed according to the solubility values and the LC-MS signal response.
From the 10 mM DMSO STD plate, 6 μL was transferred into the remaining empty plate, and then 194 μL of DMSO were added to that plate to have a STD concentration of 300 μM. From the 300 μM DMSO STD plate, 5 μL were transferred into the remaining empty plate, and then 495 μL of a mixture of H2O and acetonitrile containing internal standard (1:1) were added to that plate to have a final STD concentration of 3 μM. A certain proportion of ultrapure water was used to dilute the diluent according to the peak shape. The concentrations of the standard samples were changed according to the LC-MS signal response.
The plate was placed into the well plate autosampler. The samples were evaluated by LC-MS/MS analysis.
All calculations were carried out using Microsoft Excel.
The filtrate was analyzed and quantified against a standard of known concentration using LC coupled with mass spectral peak identification and quantitation. Solubility values of the test compound and control compound were calculated as follows: […]
Any value of the compounds that was not within the specified limits was rejected and the experiment was repeated.
“+++” indicates a solubility value equal to or greater than 10 μM, “++” indicates a solubility value between 1 and 10 μM, and “+” indicates a solubility value less than 1 μM.

[4] = PBS pH 1.6, 25° C., read-out: Aq. Solubility at pH = 1.6
[5] = PBS pH 7.4, 25° C., read-out: Aq. Solubility at pH = 7.4

Cc1ccccc1-c1nc2ccc(NC(=O)c3ccnn3C)cc2[nH]1 [B, 1-methyl-N-(2-(o-tolyl)-1H-benzo[d]imidazol-6-yl)-1H-pyrazole-5-carboxamide]
IC50 [1]: 100 to 500 nM

Cn1nccc1C(=O)Nc1ccc2nc(-c3ccccc3C(F)F)[nH]c2c1 [Compound C, N-(2-(2-(difluoromethyl)phenyl)-1H-benzo[d]imidazol-6-yl)-1-methyl-1H-pyrazole-5-carboxamide]
IC50 [1]: 100 to 500 nM
CLint scaled at 1 μM [2]: < 10 mL/min/kg
solubility at 2 h [3, 4]: > 10 µM
solubility at 2 h [3, 5]: 1 to 10 µM (≈ 0.367 to 3.67 µg/mL)

Cn1ncnc1C(=O)Nc1ccc2nc(-c3ccccc3C(F)F)[nH]c2c1 [D, N-(2-(2-(difluoromethyl)phenyl)-1H-benzo[d]imidazol-6-yl)-1-methyl-1H-1,2,4-triazole-5-carboxamide]
IC50 [1]: < 100 nM
solubility at 2 h [3, 4]: > 10 µM
solubility at 2 h [3, 5]: 1 to 10 µM (≈ 0.368 to 3.68 µg/mL)

Cc1ccccc1-c1nc2ccc(NC(=O)c3ncnn3C)cc2[nH]1 [G, 1-methyl-N-(2-(o-tolyl)-1H-benzo[d]imidazol-6-yl)-1H-1,2,4-triazole-5-carboxamide]
IC50 [1]: 100 to 500 nM
